Assays:
[1] = test system: H3 acetylation; test: H3 acetylation, colon26 cells; assay type: cell-based, mouse; conditions: colon26, dose-dependent
Experimental: (§1) Cell pellets were lysed in TNN buffer, for 30 minutes on ice and centrifuged for another 30 minutes at maximum speed at 4° C. Protein concentration was assessed by Bradford assay (Quick Start™ Bradford 1× Dye Reagent, Bio-Rad Laboratories, USA). After gel electrophoresis, proteins were transferred onto the PVDF membrane by means of Trans-Blot® Turbo™ Transfer System (Bio-Rad Laboratories, USA) and blocked by 1 h incubation in 5% skim milk (Merck Group, Germany) in PBST at RT. To confirm acetylation induced by CXD101, membranes were incubated with anti-H3 (ab1791, abcam) antibody, anti-H3Ack9 (ab10812, abcam) in case of CT26 cells, and for SW620 with H3Ack14 antibody (#7627, Cell Signaling) overnight, at 4° C. Next, membranes were washed and treated with secondary antibody for 1 h at RT. Chemiluminescent signals were detected by LICOR C-Digit (LI-COR Biosciences, USA), and the data quantified using ImageJ software (National Institutes of Health, USA).

[2] = test system: SW620 cells; test: qPCR of single genes, SW620 cells; assay type: cell-based, human
Experimental: Total RNA purified from DMSO- or CXD101 treated cells was transcribed into cDNA according to the manufacturer's instructions (iScript cDNA Synthesis Kit, Bio-Rad, USA). qPCR was conducted according to the manufacturer's protocol (SsoAdvanced Universal SYBR Green Supermix, Bio-Rad Laboratories, USA) on CFX Connect Real-Time System thermocycler (Bio-Rad Laboratories, USA).

[3] = test system: SW620 cells; test: RNA-seq, SW620 cells; assay type: cell-based, human
Experimental: (§2) SW620 cells were seeded into 6-well plates and left to adhere overnight. Cells were treated with 1 μM, 10 μM of CXD101 for 48 h. CT26 cells were seeded onto 100 mm plates and treated with 2.7 μM and 10 μM CXD101 for 72 h. After treatment cells were harvested and total RNA extracted by means of Promega ReliaPrep™ RNA Cell Miniprep System (Promega, USA). RNA was dissolved in RNAse free water and stored in −80° C. for future analysis. RNA concentration was measured by NanoDrop 2000 (Thermo Fisher Scientific, USA). Samples were qualified for library preparation if […]. Library preparation with poly (A) enrichment was performed by BGI.
FASTQ files for CXD101 and DMSO treated samples in three biological replicates were trimmed to remove adapters and low-quality bases with TrimGalore v.0.4.3 (http://www.bioinformatics.babraham.ac.uk/projects/trim_galore/). The trimmed reads were aligned to the human reference genome (build hg19) with STAR aligner v.2.7 with two mismatches allowed. Differential gene expression analysis was done with the Bioconductor framework (v.3.8) and DESeq2 R package v.1.22, using read count data provided by the aligner. Genes were considered differentially expressed if the adjusted P, calculated using the Benjamini-Hochberg method in order to minimise the false discovery rate, was less than 0.01 (1%) and the change in expression level was greater than ˜2-fold as compared to DMSO control (e.g. |log_2(expression fold change)|>1).

[4] = physchem; conditions: 25 °C, aqueous buffer
[5] = test system: SW620 human colon adenocarcinoma cells; test: MTT assay, SW620 cells; assay type: cell-based
Experimental: Three human colorectal adenocarcinoma cell lines: SW620 (ATCC® CCL-227™), HCT-15 (ATCC® CCL-225™), LoVo (ATCC® CCL-229™), and one mouse colon carcinoma cell line: CT26 (ATCC® CRL-2638™) were obtained from ATCC. Human cell lines were cultured in DMEM (Lonza Group, Switzerland), while CT26 in RPMI (Biowest, France). The media were supplemented with 10% FBS and 1% penicillin-streptomycin (Lonza Group, Switzerland). Cells were cultured under standard conditions.
In order to assess the cytotoxicity of CXD101, cells were seeded onto 96-well plates overnight and the next day were dosed with CXD101 and incubated for 72 h or 120 h. Next, 100 μl of Thiazolyl Blue Tetrazolium Bromide (MTT, Sigma-Aldrich, USA) was added into a well (final concentration […]) and incubated for 2 h at 37° C. After that medium was discarded and formazan crystals were dissolved in 100 μl DMSO (VWR International, USA) by shaking for 15 minutes. Absorbance was read by Omega FLUOstar plate reader (BMG Labtech Ltd, Germany) at the 584 nm wavelength. Data were analysed and IC50 doses calculated in GraphPad Prism (GraphPad Software, USA).

[6] = test system: histone H3 acetylation; test: Histone H3 acetylation, SW620 cells (western blot); assay type: cell-based, human; conditions: SW620, 72 hours
Experimental: as §1

[7] = test system: colon26 cells; test: RNAseq, colon26 cells in vitro; assay type: cell-based, mouse
Excerpt: The RNAseq data was aligned to the reference M. musculus genome (mm10) with STAR aligner and analysed for differential expression. […] We further evaluated transcripts identified in the colon26 RNAseq at the single gene level, focusing on murine genes which are homologues of the immune-related genes identified in human SW620 cells, which included genes in the murine MHC H2 complex. A number of H2 genes including class I and class II genes were induced including H2-D1, DMA, DMB1 and EB1 (FIG. 6).
as §2

[8] = colon26 in vitro, log 2 FC >1, FDR 1%
[9] = out of 1142 differentially expressed genes

Cc1nn(C)cc1CN1CCC(c2ccc(C(=O)Nc3ccccc3N)cc2)CC1 [CXD101, N-(2-aminophenyl)-4-(1-[(1,3-dimethyl-1H-pyrazol-4-yl)methyl]piperidin-4-yl)benzamide]
H3 acetylation in cells [1]: increases the H3 acetylation | expression of HLA-B, HLA-F, HLA-DPA1, HLA-DQB1, CTLA4, CDKN1A, TIMP3 [2]: increases expression | expression of PHGDH, BCL2L15 [2]: decreases | expression of REPIN1 [2]: no effect | share of DEGs down-regulated ([3]; SW620): 30% | share of DEGs up-regulated ([3]; SW620): 70% | number of differentially expressed transcripts ([3]; log 2 FC >1 and FDR <1%): about 2500 | solubility [4]: ≥ 500 µg/mL | proliferation of human colon cancer cells [5]: blocks proliferation | acetylation on histone H3 lysine [6]: increased level of acetylation | number of DEGs in vitro ([7]; colon26 cells): 2502 | genes down-regulated [7, 8]: 611 | genes up-regulated [7, 8]: 1891 | immune-related DEGs, Immunome database [7, 9]: 15% | immune-related DEGs, Import database [7, 9]: 34% | immune-related DEGs, immunogenicity database [7, 9]: 36%

— patent US12453725B2, “Treatment of inflammatory disease” (Celleron Therapeutics Limited, priority 2019, dated 2025)
